# Laboratory results taken from patent publication US6699846B2, “Mono- and disaccharides for the treatment of nitric oxide related disorders” (Corixa Corporation, priority 2000, dated 2004).
# Read-outs that look alike come from different tables or passages of the source.
# Assays:
# [1] = test system: human myelomonocytic cell line THP-1; experiment: proinflammatory cytokine elaboration from THP-1 cells; format: cell-based; settings: for cytokine induction / cytokine stimulation: TNF-α, IL-1β, class symbols; for cytokine stimulation: second table
# Procedure: The human myelomonocytic cell line THP-1 (ATCC) was used to evaluate the ability of glycolipids to induce proinflammatory cytokines. Glycolipids were added to cell suspensions of THP-1 as aqueous solutions containing 10% ethanol in water for injection. Prior to the 4 hr inductions, THP-1 cells are pre-incubated overnight with 10^−7 M vitamin D3, washed three times and replated in the presence of MPL®, LPS or the synthetic compounds. After 4 hr coincubating of cells with glycolipids, media containing drug is removed, cells resuspended in fresh media and allowed to rest for 20 hr.
# [2] = USP rabbit pyrogen test; format: in vivo; settings: for pyrogenicity: 2.5 μg dose, class symbols
# Excerpt: (§1) In clinical trials with monophosphoryl lipid A, fever was generally the first observed side effect. In clinical studies of various formulations of monophosphoryl lipid A administered intravenously, moderate fever, flu-like symptoms and alterations in blood pressure seem to be side effects that establish maximally tolerated doses. Minimum pyrogenic monophosphoryl lipid A doses, adjusted for body weight, as determined in the USP rabbit pyrogen test agree well with results observed in humans. […] In contrast, monophosphoryl lipid A becomes pyrogenic at intravenous doses of approximately 15 μg/kg (temperature increase of about 0.5° C.).
# [3] = test system: iNOS induction in J774 murine macrophages; experiment: iNOS induction (nitrite release, Greiss reagent) in IFN-γ primed J774 cells; format: cell-based; settings: for iNOS: second table, class symbols
# Procedure: The murine macrophage cell line J774 can be primed by IFN-γ in vitro and is very responsive to subsequent LPS stimulation of iNOS upregulation as measured by a standard Greiss reagent ELISA assay procedure. The assay utilizes J774 cells seeded at 1×10^6/mL with 30 mL/flask and with IFN-γ added at 100 units/mL for 16-24 hrs. Cells are then harvested and washed and resuspended at 2×10^5/well in a 96-well plate and allowed to adhere. Glycolipid compounds are serially diluted into the wells for a test group and the resulting cultures are incubated for another 36-40 hrs before culture supernatants are collected from Greiss reagent analysis of nitrite release. Nitrite content closely parallels iNOS function.
# Potency was determined as the concentration (ng/mL) of glycolipid in culture capable of inducing one-half maximal induction of nitrite (ED50). The lower the ED50 number, the greater the potency for iNOS induction.
# [4] = test system: pig infarct (LAD occlusion); experiment: pig infarct study (LAD occlusion), acute cardioprotection; format: in vivo
# Procedure: A total of 35 pigs were enrolled in the study: 8 in group 1; 10 in group 2; 7 in group 3, 7 in group 4; and 3 in group 5. When the data were analyzed, infarct size results from the two L-NAME control groups (1 and 3) were combined.
# [5] = body temperature in dogs; format: in vivo, dog
# Excerpt: as §1
# [6] = test system: cardiac ischemia; settings: dogs
# Excerpt: Free-radicals produced during reperfusion promote cell death. Free-radical damage to cells results in calcium overload and a decrease in activity of a variety of enzyme systems including, presumably, nitric oxide synthase causing a decrease in nitric oxide production leading to increases in neutrophil adhesion.
# [7] = body temperature in rats; format: in vivo, rat
# [8] = test system: ischemic tissues; settings: infusion immediately following bolus dosing
# [9] = test system: cardiac ischemia; settings: rabbits, treated about 24 h before cardiac ischemia
# [10] = THP-1 cells, not elicited up to this concentration
Compound,cytokine induction [1],pyrogenicity [2],cytokine stimulation [1],pyrogenicity ([2]; second table),iNOS [3],other results
CCCCCCCCCCCC(CC(=O)NC1C(O)OC(COC2OC(CO)C(OP(=O)(O)O)C(OC(=O)CC(CCCCCCCCCCC)OC(C)=O)C2NC(=O)CC(CCCCCCCCCCC)OC(C)=O)C(O)C1O)OC(C)=O (centres unmarked) [Compound 5.18],"− (−, not observable at 10 μg/mL)","+ (+, from 1-2° C.)",,,,
CCCCCCCCCCCCCCCC(=O)OC(CCCCCCCCCCC)CC(=O)NC1C(O)OC(COC2OC(CO)C(OP(=O)(O)O)C(OC(=O)CC(CCCCCCCCCCC)OC(=O)CCCCCCCCCCCCC)C2NC(=O)CC(CCCCCCCCCCC)OC(=O)CCCCCCCCCCCCC)C(O)C1O (centres unmarked) [Compound 5.20],"++ (++, observable @ 1 μg/mL)",− (−<1° C.),,,,
CCCCCCCCCCC[C@H](CC(=O)N[C@H]1[C@H](OC[C@H](NC(=O)C[C@@H](CCCCCCCCCCC)OC(=O)CCCCC)C(N)=O)O[C@H](CO)[C@@H](OP(=O)(O)O)[C@@H]1OC(=O)C[C@@H](CCCCCCCCCCC)OC(=O)CCCCC)OC(=O)CCCCC [Compound 5.21],"− (−, not observable at 10 μg/mL)",− (−<1° C.),,,,
CCCCCCCCCCC[C@H](CC(=O)NCCO[C@@H]1O[C@H](CO)[C@@H](OP(=O)(O)O)[C@H](OC(=O)C[C@@H](CCCCCCCCCCC)OC(=O)CCCCC)[C@H]1NC(=O)C[C@@H](CCCCCCCCCCC)OC(=O)CCCCC)OC(=O)CCCCC [Compound 5.23],"− (−, not observable at 10 μg/mL)",− (−<1° C.),,,,
CCCCCCCCCCCCCC(=O)O[C@H](CCCCCCCCCCC)CC(=O)NCCCO[C@@H]1O[C@H](CO)[C@@H](OP(=O)(O)O)[C@H](OC(=O)C[C@@H](CCCCCCCCCCC)OC(=O)CCCCCCCCCCCCC)[C@H]1NC(=O)C[C@@H](CCCCCCCCCCC)OC(=O)CCCCCCCCCCCCC [Compound 5.25],"++ (++, observable @ 1 μg/mL)",− (−<1° C.),,,,
CCCCCCCCCCCC(CC(=O)N[C@H]1[C@H](OC[C@H](NC(=O)CC(CCCCCCCCCCC)OC(=O)CCCCC)C(=O)O)O[C@H](CO)[C@@H](OP(=O)(O)O)[C@@H]1OC(=O)CC(CCCCCCCCCCC)OC(=O)CCCCC)OC(=O)CCCCC (some centres unmarked) [Compound 5.26],,,"− (−, not observable at 10 μg/mL)",++ (++>2° C.),− (−>200),
CCCCCCCCCCCCCC(=O)O[C@H](CCCCCCCCCCC)CC(=O)NCCO[C@@H]1O[C@H](CO)[C@@H](OP(=O)(O)O)[C@H](OC(=O)C[C@@H](CCCCCCCCCCC)OC(=O)CCCCCCCCCCCCC)[C@H]1NC(=O)C[C@@H](CCCCCCCCCCC)OC(=O)CCCCCCCCCCCCC [Compound 5.29],"++ (++, observable @ 1 μg/mL)",− (−<1° C.),,,,
CCCCCCCCCCCC(CC(=O)NC1C(O)OC(COC2OC(CO)C(OP(=O)(O)O)C(OC(=O)CC(CCCCCCCCCCC)OC(=O)CCCCC)C2NC(=O)CC(CCCCCCCCCCC)OC(=O)CCCCC)C(O)C1O)OC(=O)CCCCC (centres unmarked) [Compound 5.31],"− (−, not observable at 10 μg/mL)",− (−<1° C.),,,,
CCCCCCCCCCCC(CC(=O)NC1C(O)OC(COC2OC(CO)C(OP(=O)(O)O)C(OC(=O)CC(CCCCCCCCCCC)OC(=O)CCC)C2NC(=O)CC(CCCCCCCCCCC)OC(=O)CCC)C(O)C1O)OC(=O)CCC (centres unmarked) [Compound 5.32],"− (−, not observable at 10 μg/mL)",++ (++>2° C.),,,,
CCCCCCCCCCCC(CC(=O)N[C@H]1[C@H](OC[C@H](NC(=O)CC(CCCCCCCCCCC)OC(=O)CCCCCC)C(=O)O)O[C@H](CO)[C@@H](OP(=O)(O)O)[C@@H]1OC(=O)CC(CCCCCCCCCCC)OC(=O)CCCCCC)OC(=O)CCCCCC (some centres unmarked) [Compound 5.54],,,"− (−, not observable at 10 μg/mL)",++ (++>2° C.),− (−>200),
CCCCCCCCCCCC(CC(=O)N[C@H]1[C@H](OC[C@H](NC(=O)CC(CCCCCCCCCCC)OC(=O)CCCCCCCCC)C(=O)O)O[C@H](CO)[C@@H](OP(=O)(O)O)[C@@H]1OC(=O)CC(CCCCCCCCCCC)OC(=O)CCCCC)OC(=O)CCCCCCCCC (some centres unmarked) [Compound 5.66],,,"− (−, not observable at 10 μg/mL)",++ (++>2° C.),++ (++<80),
CCCCCCCCCCCC(CC(=O)N[C@H]1[C@H](OC[C@H](NC(=O)CC(CCCCCCCCCCC)OC(=O)CCCCCCCCC)C(=O)O)O[C@H](CO)[C@@H](OP(=O)(O)O)[C@@H]1OC(=O)CC(CCCCCCCCCCC)OC(=O)CCCCC)OC(=O)CCCCC (some centres unmarked) [Compound 5.67],,,"− (−, not observable at 10 μg/mL)",++ (++>2° C.),− (−>200),
CCCCCCCCCCCC(CC(=O)N[C@H]1[C@H](OC[C@H](NC(=O)CC(CCCCCCCCCCC)OC(=O)CCCCC)C(=O)O)O[C@H](CO)[C@@H](OP(=O)(O)O)[C@@H]1OC(=O)CC(CCCCCCCCCCC)OC(=O)CCCCC)OC(=O)CCCCCCCCC (some centres unmarked) [Compound 5.68],,,"− (−, not observable at 10 μg/mL)",++ (++>2° C.),− (−>200),
"COC(=O)[C@@H](N)CCCNC(=N)N[N+](=O)[O-] [L-NAME, Nω-nitro-L-arginine methyl ester, reference compound]",,,,,,"mean infarct size, L-NAME controls ([4]; pigs, combined group of L-NAME alone and L-NAME+vehicle, 0.5 mg/kg): 36.9±3.7%"
CCCCCCCCCCCCCCCCCC(=O)OC(CCCCCCCCCCC)CC(=O)NC1C(OCC2OC(O)C(NC(=O)CC(CCCCCCCCCCC)OC(=O)CCCCCCCCCCCCCCC)C(O)C2O)OC(CO)C(OP(=O)(O)O)C1OC(=O)CC(CCCCCCCCCCC)OC(=O)CCCCCCCCCCCCC (centres unmarked) [RC-552],"− (−, not observable at 10 μg/mL)",− (−<1° C.),,,,"concentration inducing IL-1B secretion ([1]; THP-1 cells, 4 hr induction): > 10,000 ng/mL; concentration inducing IL-8 elaboration ([1]; THP-1 cells, 4 hr induction): > 10,000 ng/mL; concentration eliciting IL-1 [1, 10]: > 10,000 μg/mL; concentration eliciting IL-8 [1, 10]: > 10,000 μg/mL; concentration inducing TNF secretion ([1]; THP-1 cells, not induced up to this concentration): > 10,000 μg/mL; intravenous dose without detectable increase in temperature [5]: > 3 mg/kg; delayed cardioprotective effect after NOS inhibitor (aminoguanidine or L-NAME) [6]: blocked; delayed protection ([6]; treated about 24 h before cardiac ischemia): reduced infarct size and stunning; intravenous dose without detectable increase in temperature [7]: > 3 mg/kg; duration of extended acute protective effect [8]: at least 3 h; delayed protection [9]: reduced infarct size and stunning; mean infarct size ([4]; pigs, 29 μg/kg i.v. bolus 10 minutes prior to ischemia (LAD occlusion), vehicle 28.9±5.0%): 14.2±3.0%; mean infarct size, L-NAME before RC-552 ([4]; pigs, 0.5 mg/kg L-NAME 30 minutes prior to 29 μg/kg RC-552): 40.2±4.4%; reduction of infarct size vs vehicle pretreated pigs ([4]; treated 10 minutes prior to ischemia): 50%; average temperature increase ([2]; rabbits, i.v. doses up to at least 1,000 μg/kg, 10% ethanol in USP WFI): less than 0.35 °C; maximal iNOS activity / nitrite elaboration ([3]; J774, IFN-γ primed): very low maximal iNOS activity"
